Each compound was assayed against T1, human PAH with the R408W mutation (Homo sapiens, UniProt P00439, R408W) (assay: Cell Based Phenylalanine Flux Assay). Conditions: A375 cells expressing R408W PAH; 24 hrs with compound, then 20 µM sepiapterin and 800 µM 13C9,15N-Phenylalanine for 4 hours; 13C-Tyrosine by LC-MS; average where tested multiple times; read-out: AC50.
T1 construct: expressed in transfected cells
T1 sequence (P00439 1-452 R408W): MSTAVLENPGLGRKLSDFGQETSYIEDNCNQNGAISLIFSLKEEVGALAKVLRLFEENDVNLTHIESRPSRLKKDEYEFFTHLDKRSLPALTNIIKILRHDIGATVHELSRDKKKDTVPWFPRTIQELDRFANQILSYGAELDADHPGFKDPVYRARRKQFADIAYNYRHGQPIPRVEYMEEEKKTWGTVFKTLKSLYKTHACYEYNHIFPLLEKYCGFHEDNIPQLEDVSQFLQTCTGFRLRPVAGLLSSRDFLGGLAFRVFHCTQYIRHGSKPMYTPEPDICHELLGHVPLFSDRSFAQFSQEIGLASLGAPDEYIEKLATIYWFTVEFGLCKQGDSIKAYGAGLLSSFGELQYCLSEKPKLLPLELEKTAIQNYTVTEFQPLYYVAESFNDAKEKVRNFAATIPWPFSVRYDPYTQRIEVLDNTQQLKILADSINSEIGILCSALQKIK
Work on `O=C(c1cnn(-c2ccccn2)c1Cl)N1CCc2[nH]cnc2C1c1cc2ccccn2n1` (stereo not shown) yielded an AC50 of 1000 to 5000 nM.
For `COc1cccn2nc(C3c4nc[nH]c4CCN3C(=O)c3cnn4cc(N(C)C)ccc34)cc12` (stereo not shown), the AC50 was 1000 to 5000 nM.
`NC(=O)c1ncoc1C(=O)N1CCc2[nH]cnc2C1c1cc2ccccn2n1` (stereo not shown) showed an AC50 of 1000 to 5000 nM.
With `Cc1cccc2cc(C3c4nc[nH]c4CCN3C(=O)c3cnn4ccccc34)nn12` (stereo not shown) the AC50 was 1000 to 5000 nM.
For `O=C(c1nnc(-c2cn[nH]c2)o1)N1CCc2[nH]cnc2C1c1cc2ccccn2n1` (stereo not shown), the AC50 was 1000 to 5000 nM.
For `Clc1cccn2nc(C3c4nc[nH]c4CCN3c3nnc(-c4ncccn4)o3)cc12` (stereo not shown), the AC50 was 1000 to 5000 nM.
`Cc1cccn2nc(C3c4nc[nH]c4CCN3C(=O)c3ccn(-c4ccccn4)n3)cc12` (stereo not shown) was tested, and the AC50 was > 5000 nM.
`FC(F)(F)c1cccn2nc(C3c4nc[nH]c4CCN3c3nc4ccccc4o3)cc12` (stereo not shown) was tested, and the AC50 was > 5000 nM.

Same assay, conditions: A375 cells expressing human PAH R408W; 24 hrs compound incubation; 13C-Tyrosine by LC-MS; average where tested multiple times; read-out: AC50
For `O=C(c1nnc(-c2ccn(C(F)F)n2)o1)N1CCc2[nH]cnc2[C@H]1c1cc2c(C3CC3)cccn2n1` [Example 1930, (S)-(4-(4-cyclopropylpyrazolo[1,5-a]pyridin-2-yl)-1,4,6,7-tetrahydro-5H-imidazo[4,5-c]pyridin-5-yl)(5-(1-(difluoromethyl)-1H-pyrazol-3-yl)-1,3,4-oxadiazol-2-yl)methanone], the AC50 was < 500 nM.
`O=C(c1cnn2cc(C3CC3)ccc12)N1CCc2[nH]cnc2[C@H]1c1cc2cccc(C(F)F)n2n1` [Example 2462, (S)-(6-cyclopropylpyrazolo[1,5-a]pyridin-3-yl)(4-(7-(difluoromethyl)pyrazolo[1,5-a]pyridin-2-yl)-6,7-dihydro-1H-imidazo[4,5-c]pyridin-5(4H)-yl)methanone] showed an AC50 of 1000 to 5000 nM.
For `Cc1cccn2nc([C@@H]3c4nc[nH]c4CCN3C(=O)c3nc4ccccc4o3)cc12` [Example 2020, (S)-benzo[d]oxazol-2-yl(4-(4-methylpyrazolo[1,5-a]pyridin-2-yl)-1,4,6,7-tetrahydro-5H-imidazo[4,5-c]pyridin-5-yl)methanone], the AC50 was < 500 nM.
With `O=C(c1nc2ccccc2s1)N1CCc2[nH]cnc2[C@@H]1c1cc2c(C(F)F)cccn2n1` [Example 2023, (R)-benzo[d]thiazol-2-yl(4-(4-(difluoromethyl)pyrazolo[1,5-a]pyridin-2-yl)-1,4,6,7-tetrahydro-5H-imidazo[4,5-c]pyridin-5-yl)methanone] the AC50 was > 5000 nM.
In the case of `O=C(c1nnc(C2CC2)o1)N1CCc2[nH]cnc2[C@H]1c1cc2c(Br)cccn2n1` [Example 1908, (S)-(4-(4-bromopyrazolo[1,5-a]pyridin-2-yl)-1,4,6,7-tetrahydro-5H-imidazo[4,5-c]pyridin-5-yl)(5-cyclopropyl-1,3,4-oxadiazol-2-yl)methanone], the AC50 is reported as < 500 nM.
In the case of `COc1cccn2nc([C@@H]3c4nc[nH]c4CCN3c3nnc(C(F)(F)F)o3)cc12` [Example 2164, (S)-2-(4-(4-methoxypyrazolo[1,5-a]pyridin-2-yl)-1,4,6,7-tetrahydro-5H-imidazo[4,5-c]pyridin-5-yl)-5-(trifluoromethyl)-1,3,4-oxadiazole], the AC50 is reported as < 500 nM.

Same assay, conditions: A375 cells expressing human R408W PAH; 24 hrs compound incubation; 13C-Tyrosine by LC-MS; average where tested multiple times; read-out: AC50
In the case of `CC(C)(O)c1nc(C(F)F)c(C(=O)N2CCc3[nH]cnc3[C@@H]2c2cc3cccc(Cl)n3n2)o1` [Example 961, (R)-(4-(7-chloropyrazolo[1,5-a]pyridin-2-yl)-6,7-dihydro-1H-imidazo[4,5-c]pyridin-5(4H)-yl)(4-(difluoromethyl)-2-(2-hydroxypropan-2-yl)oxazol-5-yl)methanone], the AC50 is reported as 1000 to 5000 nM.
With `O=C(c1nnc(C2CCC2)o1)N1CCc2[nH]cnc2[C@H]1c1cc2ccccn2n1` [Example 1514, (S)-(5-cyclobutyl-1,3,4-oxadiazol-2-yl)(4-(pyrazolo[1,5-a]pyridin-2-yl)-6,7-dihydro-1H-imidazo[4,5-c]pyridin-5(4H)-yl)methanone] the AC50 was < 500 nM.
For `Cn1ccc(-c2ccc3c(C(=O)N4CCc5[nH]cnc5[C@@H]4c4cc5c(F)cccn5n4)cnn3c2)n1` [Example 1647, (R)-(4-(4-fluoropyrazolo[1,5-a]pyridin-2-yl)-6,7-dihydro-1H-imidazo[4,5-c]pyridin-5(4H)-yl)(6-(1-methyl-1H-pyrazol-3-yl)pyrazolo[1,5-a]pyridin-3-yl)methanone], the AC50 was > 5000 nM.
Work on `O=C(c1nnc(-c2cnn(CC(F)(F)F)c2)o1)N1CCc2[nH]cnc2[C@H]1c1cc2ccccn2n1` [Example 646, (S)-(4-(pyrazolo[1,5-a]pyridin-2-yl)-6,7-dihydro-1H-imidazo[4,5-c]pyridin-5(4H)-yl)(5-(1-(2,2,2-trifluoroethyl)-1H-pyrazol-4-yl)-1,3,4-oxadiazol-2-yl)methanone] yielded an AC50 of 1000 to 5000 nM.
In the case of `COc1cccn2nc([C@H]3c4nc[nH]c4CCN3C(=O)c3nnc(-c4ccn(C(F)(F)F)n4)o3)cc12` [Example 1653, (R)-(4-(4-methoxypyrazolo[1,5-a]pyridin-2-yl)-6,7-dihydro-1H-imidazo[4,5-c]pyridin-5(4H)-yl)(5-(1-(trifluoromethyl)-1H-pyrazol-3-yl)-1,3,4-oxadiazol-2-yl)methanone], the AC50 is reported as > 5000 nM.
With `COc1cccn2nc([C@H]3c4nc[nH]c4CCN3C(=O)c3cc(C(F)F)nn3C)cc12` [Example 887, (R)-(3-(difluoromethyl)-1-methyl-1H-pyrazol-5-yl)(4-(4-methoxypyrazolo[1,5-a]pyridin-2-yl)-6,7-dihydro-1H-imidazo[4,5-c]pyridin-5(4H)-yl)methanone] the AC50 was > 5000 nM.
`Cc1cccc2cc([C@H]3c4nc[nH]c4CCN3C(=O)c3nnc(-c4ccn(C(F)F)n4)o3)nn12` [Example 937, (R)-(5-(1-(difluoromethyl)-1H-pyrazol-3-yl)-1,3,4-oxadiazol-2-yl)(4-(7-methylpyrazolo[1,5-a]pyridin-2-yl)-6,7-dihydro-1H-imidazo[4,5-c]pyridin-5(4H)-yl)methanone] was tested, and the AC50 was > 5000 nM.
`COc1ccc(-c2nnc(C(=O)N3CCc4[nH]cnc4[C@H]3c3cc4cccc(C(F)F)n4n3)o2)nc1` [Example 1578, (S)-(4-(7-(difluoromethyl)pyrazolo[1,5-a]pyridin-2-yl)-6,7-dihydro-1H-imidazo[4,5-c]pyridin-5(4H)-yl)(5-(5-methoxypyridin-2-yl)-1,3,4-oxadiazol-2-yl)methanone] showed an AC50 of 500 to 1000 nM.
In the case of `O=C(c1nnc(-c2cccnc2)o1)N1CCc2[nH]cnc2[C@@H]1c1cc2c(F)cccn2n1` [Example 897, (R)-(4-(4-fluoropyrazolo[1,5-a]pyridin-2-yl)-6,7-dihydro-1H-imidazo[4,5-c]pyridin-5(4H)-yl)(5-(pyridin-3-yl)-1,3,4-oxadiazol-2-yl)methanone], the AC50 is reported as > 5000 nM.
`Cc1cccn2nc([C@H]3c4nc[nH]c4CCN3C(=O)c3cnn4ccccc34)cc12` [Example 1287, (R)-(4-(4-methylpyrazolo[1,5-a]pyridin-2-yl)-6,7-dihydro-1H-imidazo[4,5-c]pyridin-5(4H)-yl)(pyrazolo[1,5-a]pyridin-3-yl)methanone] showed an AC50 of 500 to 1000 nM.
Compound `CC(C)(C)c1nnc(C(=O)N2CCc3[nH]cnc3[C@@H]2c2cc3c(F)cccn3n2)o1` [Example 1026, (R)-(5-(tert-butyl)-1,3,4-oxadiazol-2-yl)(4-(4-fluoropyrazolo[1,5-a]pyridin-2-yl)-6,7-dihydro-1H-imidazo[4,5-c]pyridin-5(4H)-yl)methanone] has an AC50 of 1000 to 5000 nM.
For `CC(C)(O)c1nc(C(F)(F)F)c(C(=O)N2CCc3[nH]cnc3[C@@H]2c2cc3cccc(Cl)n3n2)o1` [Example 1193, (R)-(4-(7-chloropyrazolo[1,5-a]pyridin-2-yl)-6,7-dihydro-1H-imidazo[4,5-c]pyridin-5(4H)-yl)(2-(2-hydroxypropan-2-yl)-4-(trifluoromethyl)oxazol-5-yl)methanone], the AC50 was 1000 to 5000 nM.
`CC(C)(F)c1nnc(C(=O)N2CCc3[nH]cnc3[C@H]2c2cc3c(OC(F)F)cccn3n2)o1` [Example 1728, (S)-(4-(4-(difluoromethoxy)pyrazolo[1,5-a]pyridin-2-yl)-6,7-dihydro-1H-imidazo[4,5-c]pyridin-5(4H)-yl)(5-(2-fluoropropan-2-yl)-1,3,4-oxadiazol-2-yl)methanone] gave an AC50 of 500 to 1000 nM.
Compound `Cc1cccc(-c2nnc(C(=O)N3CCc4[nH]cnc4[C@@H]3c3cc4cccc(Cl)n4n3)o2)n1` [Example 1397, (R)-(4-(7-chloropyrazolo[1,5-a]pyridin-2-yl)-6,7-dihydro-1H-imidazo[4,5-c]pyridin-5(4H)-yl)(5-(6-methylpyridin-2-yl)-1,3,4-oxadiazol-2-yl)methanone] has an AC50 of 1000 to 5000 nM.
For `Cc1cc(F)ccc1-c1nnc(C(=O)N2CCc3[nH]cnc3[C@H]2c2cc3ccccn3n2)o1` [Example 654, (S)-(5-(4-fluoro-2-methylphenyl)-1,3,4-oxadiazol-2-yl)(4-(pyrazolo[1,5-a]pyridin-2-yl)-6,7-dihydro-1H-imidazo[4,5-c]pyridin-5(4H)-yl)methanone], the AC50 was < 500 nM.
With `Cc1cccn2nc([C@@H]3c4nc[nH]c4CCN3C(=O)c3nnc(-c4cnn(C)c4C)o3)cc12` [Example 988, (S)-(5-(1,5-dimethyl-1H-pyrazol-4-yl)-1,3,4-oxadiazol-2-yl)(4-(4-methylpyrazolo[1,5-a]pyridin-2-yl)-6,7-dihydro-1H-imidazo[4,5-c)pyridin-5(4H)-yl)methanone] the AC50 was < 500 nM.
Compound `Cc1ccc2c(C(=O)N3CCc4[nH]cnc4[C@H]3c3cc4cccc(F)n4n3)cnn2c1` [Example 1786, (S)-(4-(7-fluoropyrazolo[1,5-a]pyridin-2-yl)-6,7-dihydro-1H-imidazo[4,5-c]pyridin-5(4H)-yl)(6-methylpyrazolo[1,5-a]pyridin-3-yl)methanone] has an AC50 of 500 to 1000 nM.
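Also: after compound treatment, cells received sepiapterin plus isotope-labelled Phenylalanine for 4 hours, then labelled Tyrosine in the medium was quantified, 10-point 2-fold dilution series run in duplicate.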
